Read-outs that look alike come from different tables or passages of the source.
Columns and labels:
dd strain male mice = experiment: Acute toxicity test (minimum lethal dose); assay type: in vivo; details: intraperitoneal, mortality observed for 14 days
Experimental: Using dd strain male mice weighing 20 ±l g, a test compound was intraperitoneally administered. MLD (the minimum lethal dose) was determined by observing the mortality for 14 days after administration.

HeLa S3 cells = experiment: Growth inhibition test using HeLa S3 cells; assay type: cell-based
Experimental: The pharmacological activity of Compound (I), Compound (II) and Compound (III) was determined by growth inhibition test using HeLa S3 cells.
Test on growth inhibition of HeLa S3 cells:
HeLa S3 cells diluted to 3×10^4 cells/ml with MEM medium containing 10% calf fetal serum and 2 mM glutamine were separately distributed by 0.1 ml each in each well of a 96 well microtiter plate.
After culturing at 37° C. overnight in a CO2 incubator, 0.05 ml each of a test sample appropriately diluted with MEM medium was added to each well.
After culturing the cells for 72 hours in the CO2 incubator, the culture supernatant was removed. After washing once with phosphate buffered physiological saline (PBS), 0.1 ml each of MEM medium containing 0.02% neutral red was added to each well and then cultured at 37° C. for an hour in the CO2 -incubator to stain the cells. After removing the culture supernatant, the cells were washed once with physiological saline, and the dye was extracted with 0.001 N HCl/30% ethanol. Absorbance at 550 nm of the extract was measured with a microplate reader. By comparing absorbance of extract of intact cells with that of the cells treated with a test compound in known concentrations IC50, i.e. the concentration which inhibited growth of the cells by 50% was determined.

various bacteria = details: against various bacteria; cited from earlier work
[1] = test system: lymphocytic leukemia P388; details: lymphocytic leukemia P388, etc.; cited from earlier work
[2] = Homo sapiens, HeLa S3, 72 h, read-out: IC50 (concentration which inhibited growth of the cells by 50%), HeLa S3 cells, 72 hours, neutral red staining
[3] = Homo sapiens, HeLa S3 cells, 72 hours, neutral red staining, read-out: IC50 (concentration which inhibited growth of the cells by 50%)

Compound	Acute Toxicity (MLD), minimum lethal dose (dd strain male mice) [mg/kg]	IC50 (HeLa S3 cells; [2]) [nM]	IC50 (HeLa S3 cells; [3]) [nM]	also measured
COC(=O)C1(C)Nc2c(O[Si](C)(C)C(C)(C)C)cc3c(c2C1=O)C(CBr)CN3C(=O)c1cc2cc(OC)c(OC)c(OC)c2[nH]1 (stereo not drawn) [Compound 1]	0.25			
COC(=O)C1(C)Nc2c(O)cc3c(c2C1O)C(CBr)CN3C(=O)c1cc2cc(OC)c(OC)c(OC)c2[nH]1 (stereo not drawn) [Compound 5]	0.63	0.26		
COC(=O)C1(C)Nc2c(O)cc3c(c2C1O)C(CBr)CN3C(=O)c1cc2cc(OC)c(OC)c(OC)c2[nH]1 (stereo not drawn) [Compound 6]	1.3			IC50 (HeLa S3 cells; read-out: IC50 (concentration which inhibited growth of the cells by 50%), HeLa S3 cells, 72 hours, neutral red staining): 0.2 nM
COC(=O)C1(C)Nc2c(OC(C)=O)cc3c(c2C1=O)C(CBr)CN3C(=O)c1cc2cc(OC)c(OC)c(OC)c2[nH]1 (stereo not drawn) [Compound 7]	0.063			
COC(=O)C1(C)Nc2c(O[Si](C)(C)C(C)(C)C)cc3c(c2C1OC(C)=O)C(CBr)CN3C(=O)c1cc2cc(OC)c(OC)c(OC)c2[nH]1 (stereo not drawn) [Compound 8]	2.5			
COC(=O)C1(C)Nc2c(OC(=O)N(C)C)cc3c(c2C1=O)C(CBr)CN3C(=O)c1cc2cc(OC)c(OC)c(OC)c2[nH]1 (stereo not drawn) [Compound 13]	2.5			
C=CCOC(=O)Oc1cc2c(c3c1NC(C)(C(=O)OC)C3=O)C(CBr)CN2C(=O)c1cc2cc(OC)c(OC)c(OC)c2[nH]1 (stereo not drawn) [Compound 14]	0.5	0.14		
CCCCCCCCCCCC(=O)Oc1cc2c(c3c1NC(C)(C(=O)OC)C3=O)C(CBr)CN2C(=O)c1cc2cc(OC)c(OC)c(OC)c2[nH]1 (stereo not drawn) [Compound 15]	0.5	0.042		
CCOC(=O)C1(C)Nc2c(O)cc3c(c2C1=O)C(CBr)CN3C(=O)c1cc2cc(OC)c(OC)c(OC)c2[nH]1 (stereo not drawn) [Compound 17]			0.019	
C=CCOC(=O)C1(C)Nc2c(O)cc3c(c2C1=O)C(CBr)CN3C(=O)c1cc2cc(OC)c(OC)c(OC)c2[nH]1 (stereo not drawn) [Compound 19]			0.94	
COc1cc2cc(C(=O)N3CC(CBr)c4c3cc(O)c3c4C(=O)C(C)(C(=O)OCc4ccccc4)N3)[nH]c2c(OC)c1OC (stereo not drawn) [Compound 21]			1.9	
C=CCC1(C)Nc2c(O)cc3c(c2C1=O)C(CBr)CN3C(=O)c1cc2cc(OC)c(OC)c(OC)c2[nH]1 (stereo not drawn) [Compound 25]			0.29	
COc1cc2cc(C(=O)N3CC(CBr)c4c3cc(O)c3c4C(O)C(C)(COC(C)=O)N3)[nH]c2c(OC)c1OC (stereo not drawn) [Compound 27]			3.3	
COC(=O)C1(C)NC2=C(C1=O)C13CC1CN(C(=O)c1cc4cc(OC)c(OC)c(OC)c4[nH]1)C3=CC2=O (stereo not drawn) [DC-88A]		0.039		antibacterial activity (various bacteria): exhibits not only an antibacterial activity against various bacteria; antitumor activity against lymphocytic leukemia P388 [1]: an antitumor activity against lymphocytic leukemia P388, etc.
COC(=O)C1(C)Nc2c(O)cc3c(c2C1=O)C(CBr)CN3C(=O)c1cc2cc(OC)c(OC)c(OC)c2[nH]1 (stereo not drawn) [DC-89B2, reference compound]		0.014		
